Consider one compound from patent publication US20120149080A1, “YEAST PRODUCTION CULTURE FOR THE PRODUCTION OF BUTANOL” (Butamax(TM) Advanced Biofuels LLC, priority 2010, published 2012).

The structures appear in SMILES notation.

Common to all, as to test: Glucose consumption rate in high cell density culture in YPD
Common to all, as to format: cell-based
Common to all, as to conditions: about 3.9 gdcw/L

For assay [1], the system named is Saccharomyces cerevisiae PNY0614. An excerpt: (§1) S. cerevisiae strains used were PNY0569 CEN.PK122 (MATa MAL2-8c SUC2/MATalpha MAL2-8c SUC2) and PNY0571 (CEN.PK 113-7D MATa MAL2-8c SUC2), obtained from Centraalbureau voor Schimmelcultures, Fungal and Yeast Collection (Netherlands) as well as PNY0602 and PNY0614. PNY0602 and PNY0614 were isolated from a mutagenized culture of PNY0571. PNY0571 (CEN.PK 113-7D) was subjected to 10 rounds of chemical mutagenesis with N-methyl-N′-nitro-N-nitrosoguanidine (NTG) and ethylmethane sulfonate (EMS) using standard methods (Barbour, L., M. Hanna and W. Xiao. 2006. Mutagenesis, p. 121-127. In W. Xiao (ed.), Yeast Protocols, Second Edition. Humana Press, NJ). Cells were grown overnight in 10 ml of YPD at 30° C. with shaking. The overnight culture was centrifuged, and the pellet was resuspended in 50 mM potassium phosphate buffer, pH 7.0. The cells were again centrifuged and resuspended in 10 ml of the same buffer. A portion of the resuspended cells (2.5 ml) was transferred to a plastic 15 ml screw cap centrifuge tube, and the cells were treated with NTG (10 μg/ml final concentration) or EMS (3% w/v) for 40 minutes at 30° C. without shaking. The mutagen was inactivated by addition of an equal volume of filter sterilized 10% (w/v) sodium thiosulfate. The treated cells were centrifuged and resuspended in water two times. The treatment protocol involved repeated cycles of treating yeast cells with one of the mutagens (e.g., NTG), allowing the surviving cells to grow out overnight in YPD with 1% isobutanol, and then treating the overnight culture with the other mutagen (e.g., EMS). After the fifth cycle (i.e., a total of ten treatments with mutagen), cells were screened for isobutanol tolerance. PNY0602 was isolated after prolonged (24 h) exposure to 3.0% isobutanol. PNY0614 was isolated after 5 cycles of repeated freezing and thawing of the mutagenized culture by resuspending mutagenized cells in distilled water and transferring the cells to dry-ice ethanol bath and a 37° C. water bath for 20 minutes each.
(§2) Glucose consumption rates in the presence of isobutanol in YPD were also determined when the cell concentration was about 8 O.D. (about 3.9 gdcw/L). Saccharomyces cerevisiae strains PNY0571, PNY0602 and PNY0614 were plated from a freezer vial onto YPD agar (Teknova, Hollister, Calif.; Cat. #Y1000) and incubated overnight at 30° C. Cells from the YPD plate were inoculated into a 25 ml pre-culture of YPD broth (Teknova, Hollister, Calif.; Cat. #Y5000) with an initial OD600 of 0.06 to 0.08, and this culture was grown for 7 hours in an air shaker at 30° C. An aliquot of the pre-culture was inoculated into 200 ml of YPD broth with an initial OD600 of 0.06 to 0.08, and this culture was incubated with aeration at 30° C. for approximately 17 hours. The optical density of the culture was determined, the culture was centrifuged and the cells were resuspended in fresh YPD broth to yield an OD600 of 8. At this point, an aliquot of 10 ml of the culture was used for a dry cell weight determination, which gave dry cell weight in the range of 3.89 gdcw/L.
(§3) 20 ml cultures were transferred to flasks that contained 0.0%, 0.5%, 0.75%, 1.0%, 1.25%, 1.5%, 1.75%, 2.0% and 2.5% isobutanol. Time of addition of cells was referred to as 0 hours. At various times samples (500 to 700 ul) were transferred to a tube containing an equal volume of 10% TCA. Samples were centrifuged and glucose determined in the YSI glucose analyzer (YSI 2700 Select).

The subject of assay [2] is Saccharomyces cerevisiae PNY0602.
Description: as §1, §2, §3

The subject of assay [3] is Saccharomyces cerevisiae PNY0571.
Description: as §1, §2, §3

On to `CC(C)CO` [Isobutanol, isobutanol], for which the “Glucose consumed per gdcw per hour” value in assay [1] (PNY0614, 0.5% isobutanol) is given as 2.9 per gdcw per hour; in assay [1] (PNY0614, 0.75% isobutanol), 2.8 per gdcw per hour; in assay [1] (PNY0614, 1% isobutanol) it was 2.6 per gdcw per hour; in assay [1] (PNY0614, 1.5% isobutanol), 1.4 per gdcw per hour; in assay [1] (PNY0614, 1.75% isobutanol) it was 1.0 per gdcw per hour; in assay [1] (PNY0614, 2% isobutanol) it was 0.8 per gdcw per hour. Further, the “Glucose consumed per gdcw per hour” value turned out to be 0.4 per gdcw per hour in assay [1] (PNY0614, 2.5% isobutanol); 3.0 per gdcw per hour in assay [2] (PNY0602, 0.5% isobutanol); 2.9 per gdcw per hour in assay [2] (PNY0602, 0.75% isobutanol); 2.7 per gdcw per hour in assay [2] (PNY0602, 1% isobutanol); 1.5 per gdcw per hour in assay [2] (PNY0602, 1.5% isobutanol); 1.1 per gdcw per hour in assay [2] (PNY0602, 1.75% isobutanol). The “Glucose consumed per gdcw per hour” value in assay [2] (PNY0602, 2% isobutanol) came to 0.9 per gdcw per hour; in assay [2] (PNY0602, 2.5% isobutanol), 0.5 per gdcw per hour; in assay [3] (PNY0571, 0.5% isobutanol), 2.1 per gdcw per hour; in assay [3] (PNY0571, 0.75% isobutanol) it was 2.0 per gdcw per hour; in assay [3] (PNY0571, 1% isobutanol) it was 1.9 per gdcw per hour; in assay [3] (PNY0571, 1.5% isobutanol), 1.0 per gdcw per hour. Also, the “Glucose consumed per gdcw per hour” value was found to be 0.8 per gdcw per hour in assay [3] (PNY0571, 1.75% isobutanol); 0.6 per gdcw per hour in assay [3] (PNY0571, 2% isobutanol); 0.3 per gdcw per hour in assay [3] (PNY0571, 2.5% isobutanol).
